{"source": "patent US11123398B2", "about": "“Chemotherapeutic combinations of cationic antimicrobial peptides and chemotherapeutics” (LYTIX BIOPHARMA AS, priority 2014, dated 2021)", "key": {"A375 cells [1]": {"system": "A375 cells", "test": "Release of HMGB1 (Western blot)", "type": "cell-based, human", "settings": "35 μM, up to 60 min", "method": "A375 cells were seeded with 3×10^5 cells/well in 6-well plates in a complete media, and allowed to adhere overnight. Cells were treated with LTX-315 or LTX-328 at 35 μM, and incubated at 37° C. and 5% CO2 for different time points (5, 10, 15, 30, 60 min), and negative controls were serum-free RPMI-1650. Supernatants (S) were collected and centrifuged at 1,400 g for five minutes, and cell lysates (L) were harvested after washing with PBS twice and then subsequently lysed using a 4× Sample buffer (Invitrogen, number), 0.1 M DTT (Sigma number) and water. Supernatants were concentrated using Amicon Ultra 50K centrifugal filters (Millipore UFC505024), and the cell lysate was sonicated. Both supernatants and lysate were boiled and resolved in a 10% sodium dodecyl sulfate polyacrylamide gel electrophoresis (SDS-PAGE), and then electro transferred to a polyvindiline difluoride (PVDF) membrane (Millipore). The membrane was blocked in 5% milk and incubated with the HMGB1 antibody (rabbit, polyclonal, abcam ab 18256); the membrane was then rinsed several times with TBST, incubated with a horseradish peroxidase (HRP)-conjugated secondary antibody (abcam ab6721), rinsed again with TBST and then developed using WB Luminol Reagent (Santa Cruz Biotechnology, Heidelberg, Germany)."}, "A375 cells [2]": {"system": "A375 cells", "test": "Bright field confocal live cell imaging", "type": "cell-based, human", "settings": "LTX-315 at IC-50 value, majority of the cells", "method": "A375 cells were seeded at 10,000 cells/well in a complete media in Nunc Lab-Tec 8-wells chambered covered glass (Sigma) precoated with 25 μg/ml human fibronectin (Sigma) that were allowed to adhere overnight. Cells were washed twice with a serum-free RPMI, treated with peptide dissolved in RPMI and investigated using Bright on a Leica TCS SP5 confocal microscope, with a 63×/1.2 W objective. The microscope was equipped with an incubation chamber with CO2 and temperature control."}, "[3]": {"system": "murine CT26WT colon carcinoma", "test": "Murine CT26WT colon carcinoma tumours in mice, treatment regimes", "type": "in vivo", "settings": "for Mean tumour size at day 1: prior to start of treatment", "method": "The administration takes place by intra-tumoural injection of LTX-315 dissolved in sterile saline (0.9% NaCl in sterile water).\nThe mice were divided into five groups, 8 mice in each group. When the tumours reached the desired size of 20 mm^2 the treatment by intra tumoural injection was initiated. Group one was treated solely on day 1, Group two on day 1 and 2, Group three on day 1 and 3 and Group four on day 1, 2 and 3. All daily treatments were one single injection of 1.0 mg LTX-315 dissolved in 50 μl (20 mg/ml). Group five was treated with the 50 μl of vehicle for LTX-315 (Group 5).\nWeighing and physical examination were used as health controls."}, "IGROV-1/CDDP": {"system": "IGROV-1/CDDP", "test": "MTS cytotoxicity assay, IGROV-1/CDDP", "type": "cell-based, human", "settings": "IC50 resistant / IC50 sensitive line; cisplatin resistance", "method": "Tumor cells were plated in 96-well flat-bottom microtitration plates (Nunc, Dutscher, Brumath, France) and incubated at 37° C. for 24 hours before treatment in 190 μl of drug-free culture medium supplemented or not with 10% FBS for adherent or suspension growing cell lines, respectively.\nThe adherent cell lines were washed once with 200 μl FBS-free culture medium before treatment. Tumor cells were incubated for 4 hours with 10 concentrations of compounds in ¼ dilution step with a top dose of 400 μM (range 4×10^−4 to 4×10^−10 M), with 1% (final concentration) Triton X-100 as positive control and FBS-free culture medium as negative control. The cells (190 μl) were incubated in a 200 μl final volume of FBS-free culture medium containing test substances at 37° C. under 5% CO2.\nThree independent experiments were performed, each concentration being tested in quadruplicate. Control cells were treated with vehicle alone. At the end of treatments, the cytotoxic activity was evaluated by a MTS assay (see § 3.3.).\nLike MTT, MTS is bioreduced by cells into a formazan product that is directly soluble in culture medium without processing, unlike MTT.\nAt the end of the cells treatment, 40 μl of a 0.22 μm filtered freshly combined solution of MTS (20 ml at 2 mg/ml, Ref G1111, Batch 235897, Exp March 2009, Promega, Charbonnières, France) and PMS (1 ml at 0.92 mg/ml, Ref P9625, Batch 065K0961, Sigma) in Dulbecco's Phosphate Buffered Saline (DPBS, Ref 17-513Q, Batch 6MB0152, Cambrex), were added in each well. Culture plates were incubated for 2 h at 37° C. Absorbency (OD) were measured at 490 nm in each well using VICTOR^3™ 1420 multilabeled counter (Wallac, PerkinElmer, Courtaboeuf, France).\nIC50: drug concentration to obtain a 50% inhibition of cell proliferation.\nThe dose-response curves were plotted using XLFit 3 (IDBS, United Kingdom). The IC50 determination values were calculated using the XLFit 3 software from semi-log curves. Individual IC50 determination values as well as mean and SD values were generated.\nResistance index was calculated using the following formula: […]\nResistance index was calculated for each compound for each couple of sensitive and resistant cell lines. Individual resistance index was calculated when IC50 values of both sensitive and corresponding resistant cell lines were determined within same experiment. In addition, resistance index was also calculated ratio of mean IC50 values obtained during three independent experiments."}, "[4]": {"settings": "Group 1: 1 mg intratumoural on day 1"}, "[5]": {"settings": "Group 2: 1 mg intratumoural on days 1, 2"}, "[6]": {"settings": "Group 3: 1 mg intratumoural on days 1, 3"}, "[7]": {"settings": "Group 4: 1 mg days 1, 2, 3, n=8"}, "[8]": {"settings": "Group 4: 1 mg intratumoural on days 1, 2, 3"}, "[9]": {"settings": "of the 32 treated animals, all four regimes"}}, "note": "Non-standard residues stand in square brackets, D forms with d. Residues, ends and D or L forms follow the SMILES beside them. Dip = N[C@H](C(=O)O)C(c1ccccc1)c1ccccc1"}
{"smiles": "NCCCC[C@H](NC(=O)[C@@H](NC(=O)[C@H](Cc1c[nH]c2ccccc12)NC(=O)[C@H](CCCCN)NC(=O)[C@H](CCCCN)NC(=O)[C@H](Cc1c[nH]c2ccccc12)NC(=O)[C@H](Cc1c[nH]c2ccccc12)NC(=O)[C@H](CCCCN)NC(=O)[C@@H](N)CCCCN)C(c1ccccc1)c1ccccc1)C(N)=O", "note": "[LTX-315, K-K-W-W-K-K-W-Dip-K-NH2] (H-KKWWKKW[Dip]K-NH2)", "values": [{"measurement": "HMGB1 translocation from cell lysate to supernatant", "setting": "A375 cells [1]", "value": "gradual translocation from the cell lysate to the supernatant detected"}, {"measurement": "Time to rounding up and total collapse of the cells", "setting": "A375 cells [2]", "value": "15 to 60", "unit": "min"}, {"measurement": "Animals showing complete tumour response", "setting": "[3]; Group 1: 1 mg day 1", "value": "four out of eight"}, {"measurement": "Free of Tumour at end of Follow-Up", "setting": "[3]; Group 1: 1 mg day 1, n=8", "value": "50% (4/8)"}, {"measurement": "Relapse of Tumour", "setting": "[3]; Group 1: 1 mg day 1, n=8", "value": "20% (1/5)"}, {"measurement": "Tumour Response: complete response", "setting": "[3]; Group 1: 1 mg day 1, n=8", "value": 62.5, "unit": "%"}, {"measurement": "Tumour Response: no response", "setting": "[3]; Group 1: 1 mg day 1, n=8", "value": 0, "unit": "%"}, {"measurement": "Tumour Response: partial response", "setting": "[3]; Group 1: 1 mg day 1, n=8", "value": 27.5, "unit": "%"}, {"measurement": "Mean tumour size on day 6", "setting": "[3]; [4]", "value": "4.343 ± 2.295", "unit": "mm^2"}, {"measurement": "Mean tumour size on day 10", "setting": "[3]; [4]", "value": "7.171 ± 4.035", "unit": "mm^2"}, {"measurement": "Mean tumour size on day 17", "setting": "[3]; [4]", "value": "3.712 ± 3.712", "unit": "mm^2"}, {"measurement": "Mean tumour size at day 1", "setting": "[3]; [4]", "value": "22.69 ± 0.4070", "unit": "mm^2"}, {"measurement": "Animals showing complete tumour response", "setting": "[3]; Group 2: 1 mg days 1, 2", "value": "two out of eight"}, {"measurement": "Free of Tumour at end of Follow-Up", "setting": "[3]; Group 2: 1 mg days 1, 2, n=8", "value": "25% (2/8)"}, {"measurement": "Relapse of Tumour", "setting": "[3]; Group 2: 1 mg days 1, 2, n=8", "value": "71% (5/7)"}, {"measurement": "Tumour Response: complete response", "setting": "[3]; Group 2: 1 mg days 1, 2, n=8", "value": 87.5, "unit": "%"}, {"measurement": "Tumour Response: no response", "setting": "[3]; Group 2: 1 mg days 1, 2, n=8", "value": 0, "unit": "%"}, {"measurement": "Tumour Response: partial response", "setting": "[3]; Group 2: 1 mg days 1, 2, n=8", "value": 12.5, "unit": "%"}, {"measurement": "Mean tumour size on day 6", "setting": "[3]; [5]", "value": "1.458 ± 1.458", "unit": "mm^2"}, {"measurement": "Mean tumour size on day 10", "setting": "[3]; [5]", "value": "5.058 ± 4.014", "unit": "mm^2"}, {"measurement": "Mean tumour size on day 17", "setting": "[3]; [5]", "value": "6.644 ± 3.430", "unit": "mm^2"}, {"measurement": "Mean tumour size at day 1", "setting": "[3]; [5]", "value": "22.90 ± 1.155", "unit": "mm^2"}, {"measurement": "Animals showing complete tumour response", "setting": "[3]; Group 3: 1 mg days 1, 3", "value": "five out of eight"}, {"measurement": "Free of Tumour at end of Follow-Up", "setting": "[3]; Group 3: 1 mg days 1, 3, n=8", "value": "62.5% (5/8)"}, {"measurement": "Relapse of Tumour", "setting": "[3]; Group 3: 1 mg days 1, 3, n=8", "value": "29% (2/7)"}, {"measurement": "Tumour Response: complete response", "setting": "[3]; Group 3: 1 mg days 1, 3, n=8", "value": 87.5, "unit": "%"}, {"measurement": "Tumour Response: no response", "setting": "[3]; Group 3: 1 mg days 1, 3, n=8", "value": 12.5, "unit": "%"}, {"measurement": "Tumour Response: partial response", "setting": "[3]; Group 3: 1 mg days 1, 3, n=8", "value": 0, "unit": "%"}, {"measurement": "Mean tumour size on day 6", "setting": "[3]; [6]", "value": "2.983 ± 2.983", "unit": "mm^2"}, {"measurement": "Mean tumour size on day 10", "setting": "[3]; [6]", "value": "10.85 ± 7.553", "unit": "mm^2"}, {"measurement": "Mean tumour size on day 17", "setting": "[3]; [6]", "value": "0.00 ± 0.00", "unit": "mm^2"}, {"measurement": "Mean tumour size at day 1", "setting": "[3]; [6]", "value": "21.43 ± 1.141", "unit": "mm^2"}, {"measurement": "Animals showing complete tumour response", "setting": "[3]; Group 4: 1 mg days 1, 2, 3", "value": "five out of eight"}, {"measurement": "Free of Tumour at end of Follow-Up", "setting": "[3]; [7]", "value": "62.5% (5/8)"}, {"measurement": "Relapse of Tumour", "setting": "[3]; [7]", "value": 37.5, "unit": "%"}, {"measurement": "Tumour Response: complete response", "setting": "[3]; [7]", "value": "100% (8/8)"}, {"measurement": "Tumour Response: no response", "setting": "[3]; [7]", "value": 0, "unit": "%"}, {"measurement": "Tumour Response: partial response", "setting": "[3]; [7]", "value": 0, "unit": "%"}, {"measurement": "Mean tumour size on day 6", "setting": "[3]; [8]", "value": "0.00 ± 0.00", "unit": "mm^2"}, {"measurement": "Mean tumour size on day 10", "setting": "[3]; [8]", "value": "0.00 ± 0.00", "unit": "mm^2"}, {"measurement": "Mean tumour size on day 17", "setting": "[3]; [8]", "value": "1.308 ± 1.308", "unit": "mm^2"}, {"measurement": "Mean tumour size at day 1", "setting": "[3]; [8]", "value": "24.09 ± 1.653", "unit": "mm^2"}, {"measurement": "Anti-tumour effect", "setting": "[3]; all four treatment regimes", "value": "strong anti tumour effect"}, {"measurement": "Toxic or other adverse effects", "setting": "[3]; all treated groups, intratumoural 1 mg", "value": "No toxic or other adverse effects besides local necrotic tissue and wound formation were observed"}, {"measurement": "Animals without response to the treatment", "setting": "[3]; of the 32 treated animals (in Group 3)", "value": "one"}, {"measurement": "Animals with a complete tumour response", "setting": "[3]; [9]", "value": 27}, {"measurement": "Animals with a partial response", "setting": "[3]; [9]", "value": "four"}, {"measurement": "Resistance index (RI), IGROV-1/CDDP", "setting": "IGROV-1/CDDP", "value": 0.50}]}
